Source: patent US20170137387A1, “PHARMACOLOGICALLY ACTIVE QUINAZOLINEDIONE DERIVATIVES” (ORION CORPORATION, priority 2014, published 2017)

How the values were obtained:
[1] = target: T1, human GABAB1 and GABAB2 receptor subunits (Homo sapiens, UniProt O75899+Q9UBS5); assay: Agonism and positive allosteric modulator pharmacology in vitro, two-addition FLIPR calcium assay; format: cell-based; settings: CHO cells co-expressing Galpha16; for IA (GABAB agonism): agonism efficacy at 30 μM / GABA efficacy at 30 μM; for IA (GABAB positive allosteric modulation): positive allosteric modulator efficacy at 10 μM (with EC10.5 GABA) / GABA efficacy at 30 μM
T1 construct: expressed in transfected cells; host or cells: CHO cells
Protocol: (§1) CHO cells expressing the human GABAB1 and GABAB2 receptor subunits co-expressing promiscuous Galpha16 proteins to force couple the receptor to the intracellular calcium signalling pathway were used to study GABAB pharmacology in vitro. The cells were maintained at 37° C. in a 5% CO2 95% air atmosphere in HAM F-12 medium supplemented with 10% foetal bovine serum and selection antibiotics.
(§2) The day before the experiment the cells were detached and plated into black-walled clear bottom 384-well plates at a cell density of 20 000 cells per well. The growth medium was removed and the cells were incubated with FLIPR Calcium 5 Assay reagent (Molecular Devices, CA, USA) diluted 1:1 in Probenecid-Ringer for 1 h at 37° C. in dark. Probenecid-Ringer buffer consisted of 150 mM NaCl, 3 mM KCl, 1.2 mM MgCl2, 1 mM CaCl2, 5 mM glucose, 20 mM 2-(4-(2-hydroxyethyl)piperazin-1-yl)ethanesulfonic acid (HEPES), and 2.5 mM Probenecid (pH 7.4 adjusted with 1.0 M NaOH and osmolarity adjusted to […]). Compounds were dissolved in Probenecid-Ringer. […] The samples were excited at 470-495 nm and emission was detected at 515-575 nm. All experiments were performed at 37° C.
A two-addition protocol was used to determine agonism and positive allosteric modulator pharmacology in the same assay using a kinetic read out. Agonism pharmacology of compounds was studied in the first addition in the concentration range 0.123-30 μM in quadruplicate at each concentration. In the second addition, a low (EC10.5) concentration of GABA was applied to detect the positive allosteric modulator pharmacology of the compounds to be studied. The EC10.5 concentration was determined from the GABA EC50 value using the formula ECF≈(F/(100-F))^1/H·EC50, wherein F is the fraction of full response and H is Hill slope.
(§3) Baseline fluorescence minimum was subtracted from maximum for the calculation of agonism and positive allosteric modulator pharmacology. Both in the agonism mode and in the allosteric mode, the efficacy was related to the intrinsic activity (IA) of the endogenous agonist GABA at 30 μM (positive allosteric modulator efficacy at 10 μM/GABA efficacy or agonism efficacy at 30 μM/GABA efficacy). To determine potentiation of GABA dose-response, the compounds, at a concentration of 10 μM diluted in Probenecid-Ringer, were added by FLIPR tetra followed by addition of GABA (diluted in water in the concentration range 0.123-10 μM). The EC50 values were determined using a four-parameter logistic fit (model 205 in ActivityBase XE). The EC50 value of GABA was divided with the EC50 value of GABA in the presence of positive allosteric modulator to determine potentiation of GABA dose-response EC50 value.

[2] = target: T1, human GABAB1 and GABAB2 receptor subunits; assay: Potentiation of GABA dose-response, FLIPR calcium assay; format: cell-based; settings: compound at 10 μM; EC50 of GABA divided by EC50 of GABA in the presence of positive allosteric modulator
Protocol: as §1, §2, §3

T1 sequence (Q9UBS5 15-961 limits assumed): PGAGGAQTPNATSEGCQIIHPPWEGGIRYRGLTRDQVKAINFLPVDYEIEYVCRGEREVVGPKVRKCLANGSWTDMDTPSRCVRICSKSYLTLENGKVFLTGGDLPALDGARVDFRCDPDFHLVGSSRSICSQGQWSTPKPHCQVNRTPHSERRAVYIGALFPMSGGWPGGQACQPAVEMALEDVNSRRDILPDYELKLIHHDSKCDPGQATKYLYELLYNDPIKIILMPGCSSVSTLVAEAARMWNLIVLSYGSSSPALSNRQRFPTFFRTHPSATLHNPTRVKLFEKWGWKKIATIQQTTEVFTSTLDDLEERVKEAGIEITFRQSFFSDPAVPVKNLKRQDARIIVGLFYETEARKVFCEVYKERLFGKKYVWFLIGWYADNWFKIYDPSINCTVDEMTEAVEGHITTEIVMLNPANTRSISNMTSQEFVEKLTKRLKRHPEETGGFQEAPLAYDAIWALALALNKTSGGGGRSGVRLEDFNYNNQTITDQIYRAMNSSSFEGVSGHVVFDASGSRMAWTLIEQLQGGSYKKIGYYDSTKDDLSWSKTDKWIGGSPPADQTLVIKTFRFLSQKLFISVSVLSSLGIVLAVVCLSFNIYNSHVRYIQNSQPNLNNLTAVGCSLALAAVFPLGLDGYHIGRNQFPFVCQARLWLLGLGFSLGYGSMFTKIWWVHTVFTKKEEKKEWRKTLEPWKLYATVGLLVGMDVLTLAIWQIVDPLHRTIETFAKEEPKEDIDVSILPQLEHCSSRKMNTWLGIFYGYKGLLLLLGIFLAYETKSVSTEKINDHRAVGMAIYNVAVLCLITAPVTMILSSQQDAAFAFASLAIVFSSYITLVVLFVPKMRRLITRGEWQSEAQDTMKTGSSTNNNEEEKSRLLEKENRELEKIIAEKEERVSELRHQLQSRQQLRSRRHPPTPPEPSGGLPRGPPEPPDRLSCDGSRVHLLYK
T1 sequence (O75899 42-941): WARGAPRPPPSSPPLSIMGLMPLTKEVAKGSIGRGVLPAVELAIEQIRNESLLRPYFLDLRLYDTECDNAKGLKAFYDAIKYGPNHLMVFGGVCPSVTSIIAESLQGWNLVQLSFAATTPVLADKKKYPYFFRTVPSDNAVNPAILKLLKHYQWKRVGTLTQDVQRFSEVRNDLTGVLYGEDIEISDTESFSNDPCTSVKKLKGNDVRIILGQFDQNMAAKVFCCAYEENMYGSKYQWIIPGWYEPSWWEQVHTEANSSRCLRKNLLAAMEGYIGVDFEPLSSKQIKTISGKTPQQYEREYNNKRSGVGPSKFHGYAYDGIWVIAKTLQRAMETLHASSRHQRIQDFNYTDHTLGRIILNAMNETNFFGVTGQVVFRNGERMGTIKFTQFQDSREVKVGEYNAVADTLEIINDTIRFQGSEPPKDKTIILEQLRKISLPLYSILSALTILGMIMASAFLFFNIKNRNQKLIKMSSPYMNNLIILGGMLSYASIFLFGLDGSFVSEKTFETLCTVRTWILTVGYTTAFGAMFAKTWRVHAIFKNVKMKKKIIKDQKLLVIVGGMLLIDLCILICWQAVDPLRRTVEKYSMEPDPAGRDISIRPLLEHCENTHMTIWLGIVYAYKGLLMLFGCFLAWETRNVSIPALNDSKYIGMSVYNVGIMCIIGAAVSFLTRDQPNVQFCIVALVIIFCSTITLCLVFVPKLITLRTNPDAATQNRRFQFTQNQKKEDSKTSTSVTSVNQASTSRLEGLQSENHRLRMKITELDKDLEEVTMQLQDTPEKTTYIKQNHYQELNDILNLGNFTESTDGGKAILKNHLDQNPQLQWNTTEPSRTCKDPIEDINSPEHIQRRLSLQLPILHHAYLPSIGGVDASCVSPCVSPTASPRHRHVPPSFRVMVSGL

| Compound | IA (GABAB agonism) [1] | IA (GABAB positive allosteric modulation) [1] | Potentiation of GABA (fold) [2] [fold] |
| --- | --- | --- | --- |
| C[C@H](c1ccc(Cl)cc1)n1c(=O)c2ccc(Cl)cc2n(CC(C)(C)O)c1=O [Example 117, (R)-7-Chloro-3-(1-(4-chlorophenyl)ethyl)-1-(2-hydroxy-2-methylpropyl)quinazoline-2,4(1H,3H)-dione] | 0.09 | 0.51 | 19.8 |
| CC(C)(O)Cn1c(=O)n(Cc2ccc(Br)cc2)c(=O)c2ccc(Cl)c(F)c21 [Example 123, 3-(4-Bromobenzyl)-7-chloro-8-fluoro-1-(2-hydroxy-2-methylpropyl)quinazoline-2,4(1H,3H)-dione] | 0.13 | 0.71 | 60.4 |
| CC1(C)Cn2c(=O)n(Cc3ccc(Br)cc3)c(=O)c3ccc(Cl)c(c32)O1 [Example 127, 6-(4-Bromobenzyl)-10-chloro-2,2-dimethyl-2H-[1,4]oxazino[2,3,4-ij]quinazoline-5,7(3H,6H)-dione] | 0.02 | 0.53 | 6.7 |
| CC(C)(O)Cn1c(=O)n(Cc2ccc(Cl)cc2)c(=O)c2cc(Cl)cc(F)c21 [Example 131, 6-Chloro-3-(4-chlorobenzyl)-8-fluoro-1-(2-hydroxy-2-methylpropyl)quinazoline-2,4(1H,3H)-dione] | 0.19 | 0.89 | 42.6 |
| C[C@H](c1ccc(Cl)cc1)n1c(=O)c2ccc(Cl)cc2n(CC2(C)COC2)c1=O [Example 137, (R)-7-Chloro-3-(1-(4-chlorophenyl)ethyl)-1-((3-methyloxetan-3-yl)methyl)quinazoline-2,4(1H,3H)-dione] | 0.05 | 0.64 | 19.7 |
